What follows are compounds tested against farnesyl pyrophosphate synthase (Trypanosoma cruzi) (assay: Inhibitory concentration against Trypanosoma cruzi farnesyl pyrophosphate synthase (TcFPPS)).
CCCCCCC(N)(P(=O)(O)O)P(=O)(O)O [(1-Amino-1-phosphono-heptyl)-phosphonic acid] showed an IC50 of 3.57 µM. Compound CCCC(N)(P(=O)(O)O)P(=O)(O)O [(1-Amino-1-phosphono-butyl)-phosphonic acid] has an IC50 of 30.8 µM. In the case of CCC(N)(P(=O)(O)O)P(=O)(O)O [(1-Amino-1-phosphono-propyl)-phosphonic acid], the IC50 is reported as 150 µM. CC(N)(P(=O)(O)O)P(=O)(O)O [(1-Amino-1-phosphono-ethyl)-phosphonic acid] showed an IC50 of 66.7 µM. With CCCCC(N)(P(=O)(O)O)P(=O)(O)O [(1-Amino-1-phosphono-pentyl)-phosphonic acid] the IC50 was 3.91 µM. In the case of CCCCCC(N)(P(=O)(O)O)P(=O)(O)O [(1-Amino-1-phosphono-hexyl)-phosphonic acid], the IC50 is reported as 0.382 µM.
